Experimental findings from patent US20250177367A1, “COMBINATION THERAPIES FOR MODULATION OF LIPID PRODUCTION” (Ohio State Innovation Foundation, priority 2022, published 2025) are described below.

One data set concerns SREBP-1 and -2 cleavage. Put plainly: SREBP activation by metabolites in H1299 or U87 cells (western blot, IF). Type of data set: cell-based. The following applies: for SREBP-1 translocation into the nucleus: in the presence of glucose, without glutamine, 12 hr. As for the experimental part: FIG. 1C show the western blot analysis of whole lysates from H1299 or U87 cells after NH4Cl stimulation at the indicated doses for 12 hr. in the presence of glucose (5 mM) under serum-free culture conditions.
Nuclei were stained with DAPI (blue). Scale bars, 10 m. The nuclear intensity of SREBP-1 was quantified over 30 cells by ImageJ (mean±SEM) and shown below. Significance was determined by unpaired Student's t test. *p<0.05, ^sp<0.001, #p<0.0001; N.S. not significant.
Western Blot. Cells were lysed with RIPA buffer containing a protease inhibitor cocktail and phosphatase inhibitors. […] After blocking for 1.5 hr in 5% non-fat dried milk diluted by Tris-buffered saline containing 0.1% Tween 20, the membranes were incubated with various primary antibodies, followed by appropriate secondary antibodies conjugated to horseradish peroxidase.
Immunofluorescence. Cells grown on coverslips were washed with PBS twice and fixed with 4% formaldehyde for 15 min, then permeabilized with 0.1% Triton X-100/PBS for 5 min and blocked by 3% bovine serum albumin for 30 min at room temperature. […] Cells were washed three times with PBS in a dark chamber.

The subject of data set [1] is GBM30-derived xenograft. Put plainly: GBM30-derived flank xenograft model. The following applies: 60 mg/kg dose.
Method: (§3) Mice were implanted with 3×10^6 GBM30 cells in flank. When tumor volume reached to 80 mm^3, pimozide (15, 30, 60 mg/kg/day) or vehicles were administered to mice via intraperitoneal injection for 14 days.
(§4) GBM30 cells were implanted in mice to form tumor same as FIG. 12A. Mice were started treatment when tumor volume reached to ˜80 mm^3 by pimozide (15 mg/kg/day) and fatostatin (25 mg/kg/day) alone or combination for 16 days. The tumors were isolated from mice at day 14 post-treatment and imaged. Data are shown as mean±SD (n=6).
(§5) Data are shown as mean±SD(n=6). Significance was determined by one-way ANOVA with Dunnett's multiple comparisons adjustment. *p<0.002. Tumor diameter was measured using vernier caliper and calculated as V=L×S×S/2 (S refers to short diameter, L means long diameter, V is tumor volume).
(§6) Mice were implanted with 3×10^6 GBM30 cells in flank. When tumor volume reached to ˜80 mm^3, pimozide (15 mg/kg/day), GPNA (50 mg/kg/day), DON (0.2 mg/kg/day), or CB-839 (25 mg/kg/day) alone or in combination were administered to mice via intraperitoneal injection for 14 days.
(§7) Data are shown as mean±SEM (n=6). Significance was determined by one-way ANOVA with Dunnett's multiple comparisons adjustment. *p<0.002.
Data set [2] deals with normal human astrocytes (NHA). Put plainly: Effect of PMZ on normal human astrocytes. The class given is cell-based. The following applies: doses up to 10 μM, 6 days. As for the experimental part: Statistical significance was analyzed by one-way ANOVA.
Data set [3] deals with GBM30-derived xenograft. To be noted: mouse, in vivo.
Method: as §3, §4, §5, §6, §7
A further data set relates to ASCT2. Put plainly: ASCT2 expression (western blot of membrane extracts, immunofluorescence). To be noted: pimozide 5 μM with cholesterol 3 μg/ml, 24 hr. Type of data set: cell-based, human. The text has this:
Transferring receptor-1(CD71), an integral membrane protein that mediates the uptake of transferrin-iron complexes, was used as a membrane loading control for ASCT2. […] Nuclei were stained with DAPI (blue).
On the technique in general: Immunoblotting shows a protein as a band on a membrane.

Another data set relates to H1299 and U87 cells. Put plainly: Ammonia, glutamate and α-KG levels after GPNA or CB-839. Type of data set: cell-based. To be noted: for levels of glutamate, ammonia, and α-KG in cells and in cell culture media: GPNA 5 mM or CB-839 100 nM, 12 hr; for glutamine consumption: H1299 and U87 cells. As for the experimental part:
The results are presented as mean±SEM (n=3). H1299 or U87 cells were cultured in RMPI 1640 or DMEM medium supplemented with 5% FBS for 24 hr. Cells then were washed with PBS once and treated with/without GPNA (5 mM) or CB-839 (100 nM) in the presence of glutamine (4 mM) and glucose (5 mM) under the fresh serum-free RMPI 1640 or DMEM medium for 12 hr before analysis. Cell culture conditions prior to treatment are the same for the subsequent panels unless otherwise stated.
Analysis of Metabolites in Cell Culture Medium. Metabolite levels in culture medium, including glucose, glutamine, lactate, glutamate, and NH4+, were measured using the Nova Bioprofile 100 Plus Bioanalyzer (Nova Biomedical). H1299 (4×105) or U87 (3×105) cells were seeded in 60 mm dish for 24 hr. After the cells were washed with PBS, they were switched to 2.5 ml serum-free medium with glucose (5 mM) and glutamine (4 mM) for 12 hr. The culture or control media (without cultured cells) were centrifuged at 12,000 rpm for 1 min and run on the bioanalyzer. Cell numbers were determined by using a hemocytometer after trypan blue staining. Consumption of glucose and glutamine or production of lactate, glutamate, and NH4+ under each experimental condition was calculated by subtracting their levels in control medium and normalizing to cell numbers.
(§1) Measures of Ammonia Levels in Tissues, Cells and bound to SCAP. To measure ammonia levels in tumors and normal tissues, 10 mg of tissues were collected and lysed through homogenization on ice in the ammonia assay buffer (100 l) from the commercial kit. The lysates were centrifuged at 20,000×g for 5 min at 4° C. and the ammonia levels in the supernatants were measured by the ammonia assay kit following the manufacturer's instructions (#ab83360, Abcam). For measurement of SCAP-bound ammonia, a total of 1.3×10^7 HEK293T cells was seeded in 15 cm dishes for 24 hr. The cells were transfected with GFP, GFP-SCAP wild-type, or D428A mutant together with myc-Insig1 plasmids for 24 hr, and then washed with PBS, followed by addition of fresh DMEM medium containing glucose (5 mM) and NH4Cl (4 mM) for 2 hr in the absence of glutamine. […]

Another data set deals with SREBP activation. Put plainly: Western blot of GBM30 cells treated with CB-839 with glutamine, glutamate or NH4Cl. To be noted: 12 hr. Type of data set: cell-based, human. As for the experimental part: (§2) Western Blot. Cells were lysed with RIPA buffer containing a protease inhibitor cocktail and phosphatase inhibitors. The proteins were separated on 12% SDS-PAGE, and transferred onto an ECL nitrocellulose membrane (#1620112, Bio-Rad). After blocking for 1.5 hr in 5% non-fat dried milk diluted by Tris-buffered saline containing 0.1% Tween 20, the membranes were incubated with various primary antibodies, followed by appropriate secondary antibodies conjugated to horseradish peroxidase.

The subject of data set [4] is H1299 cells-derived xenograft. Put plainly: H1299-derived xenograft mouse model treated with CB-839. The class given is in vivo, mice. The following applies: CB-839 30 mg/kg, i.p., twice per day for 3 days. As to the method: The treatment started when the tumor size reached 200 mm^3. […] Scale bars, 50 m. The expression levels were quantified by using ImageJ to analyze 4 images per tumor and 3 tumors in each group.
as §1

Another data set relates to SREBP-1/2 cleavage. Put plainly: Western blot of SREBP cleavage and FASN/SCD1 expression in GBM cells. To be noted: for pimozide-stimulated SREBP-1 activation, FASN/SCD1 and ASCT2 expression: with pimozide 5 μM, 24 hr, GBM30, U373 or U251. Type of data set: cell-based, human. As for the experimental part: P, precursor of SREBP; N, N-terminus of SREBP-1. C, C-terminus of SREBP-2.
4 mM glutamine and […] pyruvate.
as §2

Data set [5] deals with U251 cells. Put plainly: Confocal imaging of mitochondria and ROS (MitoTracker / CellROX Deep Red). The following applies: GSH 3 mM. Type of data set: cell-based. As to the method:
ROS levels were quantified in more than 100 cells (mean±SEM). Sp<0.0001. Scale bar, 10 μm.
DON (10 μM) or CB-839 (I00 nM) in combination as in (A) in the presence or absence of PA (palmitate, 20 μM) and OA (oleic acid, 20 μM) and cholesterol (3 μg/ml) for 24 hr.

Data set [6] has as its system U251 cells. Put plainly: Micrographs of U251 cell growth. To be noted: GSH 3 mM, 48 hr. The class given is cell-based. As for the experimental part: DON (10 μM) or CB-839 (100 nM) alone or in combination as in (A) in the presence or absence of GSH (3 mM) for 48 hr.
Micrographs show the growth of U251 cells treated with/without pimozide (2, 3 μM), perphenazine (3, 5 μM), GPNA (1 mM), or CB-839 (100 nM). Cells were cultured in 5% FBS full medium for 24 hr. Cells were then washed with PBS twice and treated in 1% FBS with the presence of 5 mM Glucose, 4 mM Glutamine and 1 mM Pyruvate in fresh serum-free medium for 48 hr. Scale bar, 100 μm.

“Also recorded” adds a separate entry of the source.

For the compound `C[C@H](O)C(=O)[O-].[Na+]` [lactate, sodium L-lactate], the “SREBP-1 translocation into the nucleus” value in the data set with SREBP-1 and -2 cleavage is “failed to do so”.
In the case of `O=c1[nH]c2ccccc2n1C1CCN(CCCC(c2ccc(F)cc2)c2ccc(F)cc2)CC1` [pimozide], in the data set on GBM30-derived xenograft [1], the “time of treatment until mice died” value was 6 to 8 days. In addition, the “toxic effects on normal human astrocytes” value in data set [2] is reported as “no toxic effects”. In addition, the toxicity in mice result in the data set on GBM30-derived xenograft [3] is reported as “toxic”.
For the compound `N[C@@H](CCC(=O)O)C(=O)[O-].O.[Na+]` [glutamate, L-Glutamic acid monosodium salt monohydrate], the “SREBP-1 translocation into the nucleus” value in the data set with SREBP-1 and -2 cleavage is “failed to do so”.
Take `CC(C)CCC[C@@H](C)[C@H]1CC[C@H]2[C@@H]3CC=C4C[C@@H](O)CC[C@]4(C)[C@H]3CC[C@]12C` [cholesterol]: the “pimozide treatment-elevated ASCT2 expression” value with ASCT2 was “suppressed”.
As for `O=C(Cc1cccc(OC(F)(F)F)c1)Nc1ccc(CCCCc2nnc(NC(=O)Cc3ccccn3)s2)nn1` [CB-839, telaglenastat], in the data set with H1299 and U87 cells, the “levels of glutamate, ammonia, and α-KG in cells and in cell culture media” value is on record as “dramatically reduced”; the glutamine consumption result is listed as “significant reduction”. In addition, the SREBP activation result with SREBP activation (CB-839 200 nM) is listed as “SREBP activation inhibited by CB-839”. For the same compound, the “ammonia levels in tumor tissues” value in [4] is reported as “reduction”. In data set [4] (vs vehicle), the “SREBP-1 levels in tumors (IHC)” value was “significantly reduced”. The “pimozide-stimulated SREBP-1 activation, FASN/SCD1 and ASCT2 expression” value with SREBP-1/2 cleavage was “completely abolished”.
Take `O=C([O-])CCC(=O)C(=O)[O-].[Na+].[Na+]` [α-KG, α-Ketoglutaric acid sodium salt]: the “SREBP-1 translocation into the nucleus” value in the data set with SREBP-1 and -2 cleavage is “failed to do so”.
As to `Cl.N[C@@H](CCC(=O)Nc1ccc([N+](=O)[O-])cc1)C(=O)O` [GPNA, gamma-L-Glutamyl-p-nitroanilide Hydrochloride], in the data set with H1299 and U87 cells, the “levels of glutamate, ammonia, and α-KG in cells and in cell culture media” value is “dramatically reduced”; the glutamine consumption result was “significant reduction”. In addition, in the data set with SREBP-1/2 cleavage, the “pimozide-stimulated SREBP-1 activation, FASN/SCD1 and ASCT2 expression” value is reported as “completely abolished”.
For `N` [ammonia], the “restoration of SREBP activation and FASN/SCD1 expression inhibited by CB-839” value in the data set on SREBP activation (4 mM) is “strongly restore SREBP activation”. The “SREBP-1 and -2 cleavage, FASN and SCD1 expression” value with SREBP-1 and -2 cleavage (in the presence of glucose 5 mM, NH4Cl, serum-free) was “induced SREBP-1 and -2 cleavage; also recorded: dose- and time-dependent”. For the same compound, the “SREBP-1 translocation into the nucleus” value in the data set on SREBP-1 and -2 cleavage is “markedly stimulated SREBP-1 translocation into the nucleus”. Also, the “restoration of pimozide-stimulated SREBP-1 activation, FASN/SCD1 and ASCT2 expression” value with SREBP-1/2 cleavage (NH3·H2O 4 mM, after glutamine absence, GPNA or CB-839) is reported as “fully restored”.
On to `N[C@@H](CCC(=O)N[C@@H](CS)C(=O)NCC(=O)O)C(=O)O` [GSH], for which the “combination treatment-elevated ROS level in mitochondria” value with U251 cells [5] was “reduced the combination treatment-elevated ROS level in mitochondria”. In the data set on U251 cells [6], the combination-induced cell death result is listed as “dramatically rescued the combination-induced cell death”.
